Patent publication US20060111305A1, “Metabolites of certain [1,4]diazepino[6,7,1-ij]quinoline derivatives and methods of preparation and use thereof” (Wyeth, priority 2004, published 2006)

What was measured:
[1] = Incubation of [14C]DCDQ with rat liver microsomes; type: in vitro ADME, Sprague Dawley rats
Description: (§1) [^14C]DCDQ was mixed with non-radiolabeled DCDQ (1:3 or 1:5) in the incubations. Microsomal incubations consisted of [^14C]DCDQ, magnesium chloride (10 mM) and liver microsomes incubated in 0.5 mL of 0.1 M potassium phosphate buffer, pH 7.4. [^14C]DCDQ (20 μL) in water was added to the incubation tubes containing buffer, magnesium chloride solution and microsomes. After mixing, the tubes were pre-incubated for 2 minutes in a shaking water bath at 37° C. The reactions were initiated by the addition of UDPGA or the NADPH regenerating system. UDPGA was added to incubations as a 50 μL aliquot of a 20 mM solution in water, to give a final concentration of 2 mM. An NADPH regenerating system (30 μL) was added to incubations to evaluate CYP450-mediated metabolism. The NADPH regenerating system consisted of glucose-6-phosphate (2 mg/mL), glucose-6-phosphate dehydrogenase (0.8 units/mL) and NADP^+ (2 mg/mL). Control incubations were conducted under the same conditions, but without the NADPH generating system, UDPGA or microsomes. All incubations were performed in duplicate. Incubations were stopped by the addition of 0.5 mL ice-cold methanol. Samples were vortex-mixed. Denatured proteins were separated by centrifugation at 4300 rpm and 4° C. for 10 minutes (Model T21 super centrifuge, Sorvall). The protein pellets were extracted with 0.5 mL of methanol. The supernatant was combined for each sample, mixed and evaporated to a volume of about 0.3 mL under a nitrogen stream in a Zymark TurboVap LV evaporator (Caliper Life Science, Hopkinton, Mass.). The concentrated sample was centrifuged and aliquots were radioassayed and analyzed by HPLC. This method recovered an average of 92.1% of the radioactivity from the reaction mixture.
(§2) To evaluate species differences in cytochrome P450- and UGT-mediated metabolism, [^14C]DCDQ was incubated for 20 minutes with 0.5 mg/mL liver microsomal proteins from mice, rats, dogs or humans in the presence of the NADPH regenerating system or UDPGA. The assay conditions were the same as described above, and DCDQ concentrations were 12 μM and 56 μM for cytochrome P450- and UGT-mediated metabolism, respectively.
(§3) A Waters model 2690 HPLC system (Waters Corp., Milford, Mass.) with a built-in autosampler was used for analysis. Separations were accomplished on a Phenomenex Luna C18(2) column (2×150 mm, 5 μm) (Phenomenex, Torrance, Calif.) coupled with a filter (4×2 mm) cartridge. A variable wavelength UV detector set to monitor 250 nm and Flo-One β Model A525 radioactivity flow detector (Perkin Elmer) with a 250 μL LQTR flow cell were used for data acquisition. The flow rate of Ultima Flow M scintillation fluid was 1 mL/min, providing a mixing ratio of scintillation cocktail to mobile phase of 5:1. […]

[2] = Incubation of [14C]DCDQ with mouse liver microsomes; type: in vitro ADME, CD-1 mice
Description: as §1, §2, §3

[3] = Rat urinary excretion and metabolite profiles after single oral 5 mg/kg [14C]DCDQ; type: in vivo, Sprague-Dawley rats; conditions: for radioactive dose recovered in urine: male rats; for Chromatographic distribution of radioactivity in male rat urine / Percentage of dose for urinary metabolites in rats: oral 5 mg/kg, mean n = 3
Description: At sacrifice, blood samples were collected by cardiac puncture into tubes containing EDTA as the anticoagulant and placing them on ice. Aliquots of 50 μL were removed for combustion and determination of radioactivity content. Plasma was immediately obtained from the remaining blood by centrifugation at 4° C. Brains were excised after perfusion with 50 mL of chilled sterile saline. Urine samples were collected on dry ice at intervals of 0-8 and 8-24 hour post-dosing. Feces were collected at intervals of 0-8 and 8-24 hr post-dosing at room temperature and were homogenized as described previously. The biological specimens and aliquots of the dosing solution at pre- and post-dose were stored at approximately −70° C. until analyzed.
Plasma (20 μL) and urine (50 μL) aliquots were analyzed for radioactivity concentrations. Radioactivity determinations of dose, plasma and urine were made with a Tri-Carb Model 3100 TR/LL liquid scintillation counter (LSC) (Perkin Elmer) using 10 mL of Ultima Gold as the scintillation fluid.
Urine was analyzed for radioactivity concentration as and analyzed for metabolite profiles by direct injection onto the HPLC column. LC/MS analyses for metabolite identification were also carried out with urine samples.
A Waters model 2690 HPLC system (Waters Corp., Milford, Mass.) with a built-in autosampler was used for analysis. Separations were accomplished on a Phenomenex Luna C18(2) column (150×2.0 mm, 5 μm) (Phenomenex, Torrance, Calif.). The sample chamber of the autosampler was maintained at 4° C., while the column was at ambient temperature of about 20° C. A variable wavelength UV detector set to monitor 250 nm and a Flo-One β Model A525 radioactivity detector described above were used for data acquisition. The HPLC mobile phase consisted of 10 mM ammonium acetate, pH 4.5 (A) and methanol (B), and was delivered at 0.2 mL/min. Chromatographic condition A was used for dose analysis, while condition B was used for analysis of urine and plasma, brain and fecal extracts.

[4] = Metabolites of DCDQ identified in dogs by LC/MS analysis (Table 26); type: in vivo, beagle dogs; conditions: P = plasma, U = urine, B = brain, F = feces
Text: An Agilent Model 1100 HPLC system (Agilent Technologies, Palo Alto, Calif.) including an autosampler and diode array UV detector was used for LC/MS analysis. The UV detector was set to monitor 200 to 400 nm. For selected LC/MS analysis, radiochromatograms were acquired using a β-Ram model 3 radioactivity flow detector (IN/US Systems Inc., Tampa, Fla.) equipped with a solid scintillant flow cell. LC conditions were the same as the condition B described above.
The mass spectrometer used for metabolite characterization was a Micromass Q-TOF-2 quadrupole time-of-flight hybrid mass spectrometer (Waters). The mass spectrometer was equipped with an electrospray ionization (ESI) interface and operated in the positive ionization mode. Collision energy settings of 5 and 30 eV were used for full MS and MS/MS scans, respectively. Settings for the mass spectrometer are listed below.

[5] = NADPH regenerating system, 12 μM DCDQ, 20 min

Row | metabolite detected in microsomal incubation [1, 5] | metabolite detected in microsomal incubation [2, 5] | Matrix [4] | Chromatographic distribution of radioactivity in male rat urine ([3]; 0-8 hr) | Percentage of dose for urinary metabolites in rats ([3]; 0-8 hr) | Percentage of dose for urinary metabolites in rats ([3]; 0-24 hr) | Chromatographic distribution of radioactivity in male rat urine ([3]; 8-24 hr) | Percentage of dose for urinary metabolites in rats ([3]; 8-24 hr) | metabolite detected in microsomal incubation ([1]; UDPGA, 56 μM DCDQ) | metabolite detected in microsomal incubation ([2]; UDPGA, 56 μM DCDQ) | SMILES | radioactive dose recovered in urine ([3]; 0-8 hour period) | radioactive dose recovered in urine ([3]; 8-24 hour period) | radioactive dose recovered in urine ([3]; first 24 hours post-dose)
1 | not mouse or rat | not mouse or rat | – | – | – | – | – | – | – | – | [O-][N+]12CCN=Cc3cccc(c31)[C@H]1CCC[C@H]1C2 (some centres unmarked) [Metabolite M5, DCDQ imine N-oxide] | – | – | –
2 | – | – | P, U | 9.68% | 3.16% | 6.60% | 10.1% | 3.44% | – | – | O=C1CC[C@@H]2c3cccc4c3N(CCNC4)C[C@H]12 [Metabolite M7, 17-keto DCDQ] | – | – | –
3 | – | – | P, U | – | – | – | – | – | not mouse or rat | not mouse or rat | O=C(O)[C@H]1O[C@@H](OC(=O)N2CCN3C[C@@H]4CCC[C@@H]4c4cccc(c43)C2)[C@H](O)[C@@H](O)[C@@H]1O [Metabolite M6, carbamoyl glucuronide of DCDQ] | – | – | –

Second part, the compound before the results:

Row | SMILES | metabolite detected in microsomal incubation [1, 5] | metabolite detected in microsomal incubation [2, 5] | Matrix [4] | Chromatographic distribution of radioactivity in male rat urine ([3]; 0-8 hr) | Percentage of dose for urinary metabolites in rats ([3]; 0-8 hr) | Percentage of dose for urinary metabolites in rats ([3]; 0-24 hr) | Chromatographic distribution of radioactivity in male rat urine ([3]; 8-24 hr) | Percentage of dose for urinary metabolites in rats ([3]; 8-24 hr) | metabolite detected in microsomal incubation ([1]; UDPGA, 56 μM DCDQ) | metabolite detected in microsomal incubation ([2]; UDPGA, 56 μM DCDQ) | radioactive dose recovered in urine ([3]; 0-8 hour period) | radioactive dose recovered in urine ([3]; 8-24 hour period) | radioactive dose recovered in urine ([3]; first 24 hours post-dose)
4 | c1cc2c3c(c1)[C@H]1CCC[C@H]1CN3CCNC2 [[^14C]DCDQ] | – | – | – | – | – | – | – | – | – | – | 32.5% | 34.2% | 66.7±5.0%
5 | OC1CN2C[C@@H]3CCC[C@@H]3c3cccc(c32)CN1 (some centres unmarked) [Metabolite M1, hydroxy DCDQ] | not detected | not detected | P, U | 26.9% | 8.67% | 16.4% | 22.5% | 7.74% | – | – | – | – | –
6 | OC1[C@@H]2CCC[C@@H]2c2cccc3c2N1CCNC3 (some centres unmarked) [Metabolite M2, hydroxy DCDQ] | observed | only metabolite detected | P, U, F | 9.51% | 3.16% | 5.09% | 5.83% | 1.94% | – | – | – | – | –
7 | c1cc2c3c(c1)[C@H]1CCC[C@H]1CN3CCNC2 [DCDQ, (9aR,12aS)-4,5,6,7,9,9a,10,11,12,12a-decahydro-cyclopenta[c][1,4]diazepine[6,7,1-ij]quinoline, reference compound] | – | – | P, U, F | 1.29% | 0.42% | – | 1.46% | 0.51% | – | – | – | – | –
